The values that follow come from ChEMBL document CHEMBL5728971, “Small molecule inhibitors of lactate dehydrogenase and methods of use thereof” (2022).

The test is described as follows: Biochemical Assay: Test compounds were placed in a Greiner Bio-One (Monroe, N.C.) 1536-well black solid bottom assay plate. 200 millimolar (mM) Tris HCl, pH 7.4, 100 micromolar (μM) EDTA and 0.01% TWEEN-20™, final concentration, was used as the assay buffer. The LDHA reagent was 2 nanomolar (nM) Human LDHA (Meridian Life Science, Inc., Memphis, Tenn.), final concentration, in assay buffer.
`NC(=O)c1csc(-n2nc(-c3cccc(-c4ccccc4)c3)c(Cc3ccc(S(N)(=O)=O)cc3)c2O)n1` gave an IC50 of more than 57000 nM. In turn, `NS(=O)(=O)c1ccc(Cc2c(-c3ccc(F)c(C4=CCN(C(=O)C5CC5)CC4)c3)nn(-c3nc(C(=O)O)cs3)c2CC2CC2)cc1F` came in with a half-maximal inhibitory concentration (IC50) of less than 100 nM. The compound `COc1cccc(-c2cccc(-c3nn(-c4nc(C(=O)O)cs4)c(C(F)(F)F)c3Cc3ccc(S(N)(=O)=O)cc3)c2)c1` came in with an IC50 of less than 100 nM.

For the compound `NS(=O)(=O)c1ccc(Cc2c(CC3CC3)nn(-c3nc(C(=O)O)cs3)c2-c2cccc(-c3ccccc3)c2)cc1F`, the IC50 entry was “in the range around 29000 nM”. `CS(=O)(=O)c1ccc(Cc2c(-c3ccc(F)c(C#CCC4CCCO4)c3)nn(-c3nc(C(=O)O)cs3)c2CC2CC2)cc1F` (stereo unspecified): the IC50 was less than 100 nM. `CCOC(=O)c1csc(-n2nc(-c3ccc(F)c(-c4cccc(F)c4)c3)c(Cc3ccc(S(N)(=O)=O)c(F)c3)c2CC2CC2)n1` yielded a half-inhibitory concentration (IC50) of more than 57000 nM. `Cc1ccc(-c2cccc(-c3nn(-c4nc(C(=O)O)cs4)c(CC4CC4)c3Cc3ccc(S(N)(=O)=O)cc3F)c2)cc1` showed a 50% inhibitory concentration (IC50) of less than 100 nM. Turning to `Cc1c(Cc2ccc(S(N)(=O)=O)cc2)c(-c2ccccc2)nn1-c1nc(C(=O)O)cs1`, the IC50 was less than 100 nM. On to `Cc1ccc(-c2cccc(-c3c(Cc4ccc(S(N)(=O)=O)c(F)c4)c(C4CC4)nn3-c3nc(C(=O)O)cs3)c2)cc1`, for which the IC50 result was “in the range around 29000 nM”.

Consider `NS(=O)(=O)c1ccc(Cc2c(-c3ccc(F)c(C#CC4CCCC4)c3)nn(-c3nc(C(=O)O)cs3)c2C2CC2)cc1F`, for which the 50% inhibitory concentration (IC50) is less than 100 nM.

In the case of `NS(=O)(=O)c1ccc(Cc2c(-c3ccc(F)c(C4CC4)c3)nn(-c3nc(C(=O)O)cs3)c2CC2CC2)cc1F`, the IC50 was less than 100 nM. `Cc1ccc(-c2cc(-c3c(Cc4ccc(S(N)(=O)=O)c(F)c4)c(CC4CC4)nn3-c3nc(C(=O)O)cs3)ccc2F)s1` returned an IC50 of more than 57000 nM. `CC#Cc1cc(-c2nn(-c3nc(C(=O)OCC)cs3)c(CC3CC3)c2Cc2ccc(S(N)(=O)=O)c(F)c2)ccc1F`: the half-inhibitory concentration (IC50) entry is “in the range around 29000 nM”. The compound `NS(=O)(=O)c1ccc(Cc2c(-c3ccc(F)c(/C=C/C4CC4)c3)nn(-c3nc(C(=O)O)cs3)c2CC2CC2)cc1F` came in with an IC50 of less than 100 nM. The same measure for `CCOC(=O)c1csc(-n2nc(-c3ccc(F)c(C#CC4CCCC4)c3)c(Cc3ccc(S(N)(=O)=O)cc3)c2CC2CC2)n1`: “in the range around 29000 nM”; for `NS(=O)(=O)c1ccc(Oc2cn(-c3nc(C(=O)O)cs3)nc2-c2ccccc2)cc1`: less than 100 nM. Take `C#Cc1cc(-c2nn(-c3nc(C(=O)O)cs3)c(CC3CC3)c2Cc2ccc(S(N)(=O)=O)c(F)c2)ccc1F`: the IC50 was less than 100 nM.

As to `CCOC(=O)c1csc(-n2nc(-c3ccc(F)c(-c4ccc(C)cc4)c3)c(Cc3ccc(S(N)(=O)=O)c(F)c3)c2CC2CC2)n1`, the IC50 result was “in the range around 29000 nM”. `Cc1ccc(-c2cccc(-c3nn(-c4nc(C(=O)O)cs4)c(CC4CC4)c3Cc3ccc(S(N)(=O)=O)c(F)c3)c2)cc1` showed an IC50 of less than 100 nM. In the case of `NS(=O)(=O)c1ccc(Cc2c(-c3ccc(F)c(OCC4CC4(F)F)c3)nn(-c3nc(C(=O)O)cs3)c2CC2CC2)cc1F` (stereo unspecified), the IC50 was less than 100 nM.

For `NS(=O)(=O)c1ccc(Cc2c(-c3ccc(F)c(-c4cccc(F)c4)c3)nn(-c3nc(C(=O)O)cs3)c2CC2CC2)cc1`, the IC50 was less than 100 nM. The same measure for `NS(=O)(=O)c1ccc(Cc2cn(-c3nc(Br)cs3)nc2-c2ccccc2)cc1`: “in the range around 29000 nM”. `Cn1cc(-c2cc(-c3nn(-c4nc(C(=O)O)cs4)c(CC4CC4)c3Cc3ccc(S(N)(=O)=O)c(F)c3)ccc2F)cn1` displayed an IC50 of less than 100 nM. Turning to `CCOC(=O)c1csc(-n2nc(-c3cccc(OC4CCCC4)c3)c(Cc3ccc(S(N)(=O)=O)cc3F)c2CC2CC2)n1`, the concentration for half-maximal inhibition (IC50) entry was “in the range around 29000 nM”.

In the case of `O=C(O)c1csc(-n2nc(-c3ccccc3)cc2C(F)(F)F)n1`, the IC50 result is “in the range around 29000 nM”. Turning to `NS(=O)(=O)c1ccc(Cc2c(-c3cccc(-c4ccc(F)cc4)c3)nn(-c3nc(C(=O)O)cs3)c2C(F)(F)F)cc1`, the half-inhibitory concentration (IC50) was less than 100 nM.

The IC50 is the point on the concentration scale where inhibition reaches its midpoint.
